One test deals with T1, ADP P2Y12 receptor (Homo sapiens, UniProt Q9H244).
T1 construct: expressed in transfected cells
In words: FLIPR calcium assay transducing Gi-coupled signaling to the Gq pathway (inhibition of ADP-induced calcium mobilization). It counts as cell-based. As to conditions: HEK 293 cells co-transfected with P2Y12 and Gqi5, ADP at EC60-70 dose. From the text:
A FLIPR Calcium Assay Transducing Gi-Coupled Signaling to the Gq Pathway
The ADP P2Y12 subtype is a Gi coupled GPCR, which mediates inhibition of adenylate cyclase leading to decreased cAMP while Gq proteins primarily activate phospholipase C, which stimulates inositol-1,4,5-triphosphate (IP3) formation and a subsequent increase in intracellular Ca^2+ concentration, which can be easily measured by FLIPR. Prior to the development of a method to convert a Gi coupled GPCR signaling to a Gq coupled GPCR signaling, a significant barrier existed for the functional testing and screening of Gi coupled GPCRs. One popular method, GTPγS migration, is slow, produces a small signal and generates radioactive waste. The discovery that a small switch in the amino acid sequence in the Gi protein could convert it to a protein mediating a Gq coupled response has led to the development of robust, high throughput assays for this valuable receptor subtype.
The FLIPR-based HTS assay transducing the Gi signaling to the Gq pathway is described below.
pcDNA3hygroP2Y12 containing a hygromycin resistance gene and pLEC1-Gqi5-HA containing a neomycin resistance gene (licensed from Molecular Devices, Sunnyvale, Calif.) were co-transfected into Human embryonic kidney (HEK) 293 cells with SuperFect (Qiagen, Valencia, Calif.). Cell clones were selected in the presence of 600 μg/ml hygromycin B (Life Technologies, Carlsbad, Calif.) and 1 mg/ml of G418 (Mediatech, Herndon, Va.). Drug resistant colonies were picked and screened by FLIPR and the gene expression was further confirmed by RT-PCR. Positive clones were maintained in growth medium (DMEM supplemented with 10% FBS, 1× p/s) containing 400 μg/ml of G418 and 200 μg/ml of hygromycin.
The day before the assay, cells are seeded in clear, flat-bottom black-wall, tissue culture treated polystyrene 96- or 384-well plates and incubated at 37° C., 5% CO2. 50 μl of complete dye loading solution (FLIPR Calcium Assay Kit, Molecular Devices) was added to each well containing 100 μl of culture media. The cells were incubated for at least 30 min at 37° C., in 5% CO2 before initiating the assay on the FLIPR. The agonist effect of ADP was tested and EC50 was determined prior to compound testing. The EC60-70 dose was used.
The antagonist compounds were prepared at 4× and the agonists were diluted at 5× the concentration desired in the test wells, and then aliquoted into the sample plates. The sample plates and the cell plate were placed in the FLIPR assay chamber. A first addition (50 μl) was made at the start of reading and a second addition (50 μl) was made after 5 min of reading. Raw fluorescence data was exported for each well and tabulated versus time within an ASCII file. Data was then imported into Excel and the peak response over the basal level was determined. The percent inhibition for each compound was calculated by the change in fluorescent density as a % inhibition of the control ADP response to obtain an IC50, as shown in Table 1 (wherein N/A means Not Applicable).
On the technique in general: Calcium flux is commonly read through the fluorescence of an indicator in the cells.

The target in another test is T2, P2Y12 receptor (Homo sapiens, UniProt Q9H244).
T2 construct: expressed in transfected cells
T2 sequence (Q9H244 whole entry): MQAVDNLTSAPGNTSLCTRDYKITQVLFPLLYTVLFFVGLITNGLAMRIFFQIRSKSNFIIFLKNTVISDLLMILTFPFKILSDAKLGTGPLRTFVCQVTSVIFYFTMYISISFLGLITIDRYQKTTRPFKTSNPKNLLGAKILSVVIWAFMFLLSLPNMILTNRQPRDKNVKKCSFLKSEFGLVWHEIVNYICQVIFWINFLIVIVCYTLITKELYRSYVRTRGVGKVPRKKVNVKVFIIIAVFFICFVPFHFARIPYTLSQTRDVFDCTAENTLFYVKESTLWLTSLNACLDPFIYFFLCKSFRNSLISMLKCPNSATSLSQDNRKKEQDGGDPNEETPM
Kind of test: Whole cell receptor binding assay, 2-MeS[3H]-ADP. To be noted: HEK 293 cells stably transfected with P2Y12; 2-MeS[3H]-ADP 3 nM; 30 min at 37° C.; read-out: Inhibition of Receptor Binding (IC50 μM). As to the method: A whole cell-binding assay for 2-MeS [^3H]-ADP (Custom synthesized by Amersham BioScience, Piscataway, N.J.) to the P2Y12 receptor was performed.
A P2Y12 cDNA containing hygromycin resistant gene was transfected in HEK 293 cells. A stable cell line was obtained by a cloning selection method. The cells were cultured in DMEM supplemented with 10% FBS and 1× of p/s.
On the day of the assay, the cells were harvested and resuspended in 0.25% BSA-DMEM and adjusted to a cell concentration of 1.6×10^6/ml. 15 μl of each compound was mixed with 120 μl of cell suspension in 96 well assay plates and incubated for 5 min prior to the addition of the radio-labeled ligand 2-MeS[^3H]-ADP (3 nM final in 0.25% BSA-DMEM) or unlabeled […] (for non-specific binding). The reaction was then incubated for 30 min at 37° C. and stopped by adding cold DMEM. The labeled and unlabeled cells were separated by a filtration method using a Packard Filtermate 196 on to the unfilter-96 GF/B plate. The plates were dyed in a 37° C. oven for 1-2 hours and 50 μl of MicroScint-20 (PerkinElmer) was added to each well. The radioactivity was measured using a TOPCOUNT beta counter (Packard). The percent inhibition for each compound was calculated by the change in radioactivity as a % inhibition of the control to obtain an IC50, as shown in Table 2.

Another test deals with platelets. Kind of test: In vitro platelet aggregation (ADP-induced, washed platelets). Type of test: cell-based. To be noted: Homo sapiens, washed platelets from healthy volunteers, agonist giving 60-70% aggregation, % inhibition of control ADP response. As to the method:
Platelet aggregation studies were performed according to a published method (Bednar, B., Condra, C., Gould, R. J., and Connolly, T. M., Throm. Res., 77:453-463 (1995). Platelet-rich plasma (PRP) concentrates prepared from healthy volunteers who were aspirin free for at least 7 days by venipuncture using ACD-A as anticoagulant was purchased from Biological Specialties, Inc. (Colmar, Pa.). PRP was centrifuged at 730 g for 15 min. The platelet pellet was washed twice in CGS buffer (13 mM sodium citrate, 30 mM glucose, 120 mM NaCl, pH 6.5) containing 1 μ/ml apyrase (grade V, Sigma-Aldrich, St. Louis, Mo.), 1 mM EGTA, and resuspended in Tyrode's buffer (140 mM NaCl, 2.7 mM KCl, 12 mM NaHCO3, 0.76 mM Na2HPO4, 5.5 mM dextrose, 5.0 mM Hepes, 0.2% BSA, pH 7.4). The platelets were diluted to 3×10^8 platelets/ml and kept >45 min at 37° C. before use. 105 μl of washed platelets, 2 mM CaCl2 and […] of fibrinogen were added to a 96-well microliter plate.
Platelet aggregation was initiated by the addition of serial concentrations of ADP (BioData Corp. Horsham, Pa.). Buffer was added to one set of control wells. The assay plate was stirred constantly and intermittently placed in a microplate reader (Softmax, Molecular Devices, Menlo Park, Calif.) to read optical density (650 nm) at 0 and 5 minutes after the addition of the compound solutions. Aggregation was calculated as the decrease in optical density between the time 0- and 5-min measurements and expressed as % of aggregation. For the inhibition assay, platelet aggregation was conducted as described above except for compound additions. Test compounds were prepared in 100% DMSO and stored.
On the day of the assay, test compounds were diluted in the buffer containing 3% of DMSO as a 10× working solution. 15 μl of compound solutions were added to 105 μl of platelets 5 min prior to the addition of CaCl2 and fibrinogen.

T1 sequence (Q9H244 whole entry): as above

For the compound `CCCSc1nc(NCC(F)(F)F)c2nnn([C@@H]3C[C@H](c4nnc(C)[nH]4)[C@@H](O)[C@H]3O)c2n1` [Cpd 18, (1S,2R,3R,5R)-3-(5-methyl-4H-[1,2,4]triazol-3-yl)-5-[5-propylsulfanyl-7-(2,2,2-trifluoro-ethylamino)-[1,2,3]triazolo[4,5-d]pyrimidin-3-yl]-cyclopentane-1,2-diol], the IC50 at ADP P2Y12 receptor was more than 30 µM; on P2Y12 receptor, 6.2 µM; with platelets, more than 30 µM.

For orientation: IC50 means the concentration that gives 50% inhibition.

The record behind these values is US7566722B2, “Triazolopyrimidine derivatives as ADP P2Y12 receptor antagonists” (Janssen Pharmaceutica, N.V., priority 2006, dated 2009).
